Source: patent US20260184700A1, “PDK1 REGULATORY COMPOUND AND COMPOSITION CONTAINING THE SAME” (PROVIBIO CO., LTD., priority 2024, published 2026)

How the values were obtained:
[1] = tested on: phospho-PDK1 in SU-DHL-8 cells; assay: PDK1 phosphorylation (pPDK1) by flow cytometry in SU-DHL-8 cells; format: cell-based, human; conditions: SU-DHL-8, 24 hours, pPDK1-PE flow cytometry, vs control group
Protocol: SU-DHL-8 cells were cultured in RPMI-1640 medium (containing 10% FBS, 100 U/mL penicillin, and 100 μg/mL streptomycin), and the cell concentration was adjusted to 1×10^6 cells/mL and seeded into a 12-well plate. After stabilizing the cells, the compound of the present invention was added, and the cells were cultured for 24 hours.
After drug treatment, the cells were harvested, and the Fc receptor blocking process was performed. The cells were then fixed and permeabilized using the Intracellular Staining Kit (Cat. No. BD554715) from BD Biosciences. Subsequently, the intracellular pPDK1 was stained using the pPDK1-PE fluorescently labeled antibody (BD Biosciences).
Referring to the figure, the vertical axis represents the phosphorylation level of PDK1 (phospho-PDK1 expression level), and the horizontal axis denotes the concentration-dependent treatment conditions of each compound.

MRL/lpr mice = assay: Lupus animal model (MRL/lpr mice); format: in vivo, mouse
From the text: The MRL/MpJ-Faslpr/J (Hereinafter Referred to as “MRL/lpr”) used in this experiment is one of the representative animal models for systemic lupus erythematosus (SLE), known to produce various autoantibodies, including antinuclear antibodies, due to the lpr (lymphoproliferation) gene.
In this invention, the period up to 9 weeks of age was considered the pre-disease stage, and the period after 23 weeks of age was considered the post-disease stage, and efficacy verification experiments using this model were conducted.
MRL/lpr mice were imported from The Jackson Laboratory and acclimatized for one week in an SPF (Specific Pathogen Free) facility maintained at a temperature of 21-24° C., humidity of 40-60%, and a 12-hour light-dark cycle (lights on at 7:00 AM, lights off at 7:00 PM). […]
The serum separated at the time of necropsy of the lupus animal model was analyzed using the ‘IgG (Total) Mouse Uncoated ELISA Kit (Invitrogen, Cat. #88-50400)’ to measure the concentration of total IgG.
Capture antibody (anti-mouse IgG) diluted 1/250 in coating buffer was added to each well of a 96-well plate (Nunc™ MaxiSorp™ ELISA Plates, Uncoated, BioLegend, Cat. #423501) at 100 μl per well, and the plate was incubated at 4° C. for 16 hours.
To investigate the effect of GO15F administration on changes in the ratio of immune cells in the spleen of a lupus animal model, the spleens of mice administered each compound were excised, cells were extracted, and the cells were suspended in MACS buffer (autoMACS Washing Solution, Miltenyi Biotec., Cat. #130-092-987).
For flow cytometry analysis, FACS tubes (5 mL round tubes, Falcon, Cat. #352052) were used. To prevent non-specific binding of antibodies, 1 μg/mL of anti-mouse CD16/CD32 (InVivoPlus anti-mouse CD16/CD32, BioXCell, Cat. #BP0307) for 30 minutes to prevent non-specific binding of the antibody, then centrifuge at 1,500 rpm for 5 minutes and resuspend in 100 μL of MACS buffer.
For B cells, each FACS tube was stained with 1 μg/mL of FITC-conjugated anti-B220 antibody (eBioscience™, Cat. #11-0452-81) at 4° C. for 30 minutes, then washed with 2 mL of MACS buffer.
For T cells, each FACS tube was stained with 1 μg/mL PerCP-Cy5.5-conjugated anti-CD3 (Biolegend, Cat. #100218) at 4° C. for 30 minutes.
For macrophages, each FACS tube was stained with 1 μg/mL of PE-conjugated anti-CD11b antibody (Biolegend, Cat. #101207) and PerCP-Cy5.5-conjugated anti-F4/80 (Biolegend, Cat. #123128) and incubated at 4° C. for 30 minutes. The tubes were then washed with 2 mL of MACS buffer.
To investigate the effects of compound GO15F according to the present invention on systemic immune responses in a lupus animal model, gene expression analysis of cytokines in kidney tissue was performed as described in (1).
Each kidney tissue was used to isolate total RNA using TRIzol™ (Invitrozen, Cat. #15596018). RNA from each mouse was quantified at 1 μg using a micro-quantitative spectrophotometer (ThermoFisher Scientific, ND2000) and cDNA was synthesized.
The synthesized cDNA from each mouse was quantified to a concentration of 50 ng using a micro-quantitative spectrophotometer, and qPCR was performed for the cytokines ‘IL-2, IL-6, IL-10, IL-17, TNF-α, IFN-γ’ using a SYBR green probe (CFX96, BIO-RAD).
To investigate the effects of drug administration on renal tissue in MRL/lpr mice, the tissue was fixed in 10% neutral buffered formalin at room temperature, followed by stepwise ethanol penetration for dehydration. The tissue was then embedded in xylene and paraffin.
The blocked tissues were sectioned into 4 μm thick slices using a microtome, followed by deparaffinization, hydration, and staining.
Hematoxylin & Eosin staining, PAS staining, and Masson trichrome staining were performed for pathological evaluation of the tissues. […]

[2] = tested on: NHDF (Normal Human Dermal Fibroblast) cells; assay: Doxorubicin-induced aging NHDF cell model, SA-β-gal and Ki-67; format: cell-based; conditions: Doxorubicin (100 ng/ml) and IGF-1 (100 ng/ml), GO15F 0.01, 1 μM, 7 days
Protocol: After pre-incubation, the medium was removed, and the cells were cultured for 7 days in medium containing Doxorubicin (100 ng/ml) and IGF-1 (100 ng/ml) with GO15F. During this process, the medium was replaced with fresh medium every 2 days. The cultured cells were washed with PBS, fixed with 1× fixation buffer for 15 minutes, washed again with PBS, and then 300 μL of 1× working SA-β-gal buffer was added to each well. The cells were incubated at 37° C. for 24 hours. After the reaction was terminated, the cells were washed with PBS, and the fluorescence intensity of β-gal-positive cells stained blue was observed and photographed using a light microscope. Additionally, to investigate the effect of the compound (GO15F) of the present invention on proliferation activity in aging-induced NHDF (Normal Human Dermal Fibroblast) cells, Ki-67 expression was measured via FACS analysis. First, NHDF cells were seeded at 1×10^4 cells per well in a 12-well plate and stabilized for 24 hours. Subsequently, the cells were pre-incubated with GO15F at a concentration of 0.01 μM for 24 hours. After pre-incubation, the medium was removed, and GO15F (0.01 μM) was added to the medium containing Doxorubicin (100 ng/ml) and IGF-1 (100 ng/ml), followed by incubation for 7 days with fresh medium replaced every 2 days. […]

[3] = tested on: bleomycin-treated Balb/c mice; assay: Bleomycin-induced pulmonary fibrosis animal model; format: in vivo, mouse; conditions: bleomycin mice lung, vs BLM-treated group
From the text: To evaluate the therapeutic efficacy of the compound according to the present invention against pulmonary fibrosis, an animal model of pulmonary fibrosis induced by bleomycin intratracheal administration was established.
For this purpose, 8-week-old male Balb/c mice were subjected to general anesthesia using an inhalation anesthetic (2-3% isoflurane in oxygen), followed by disinfection of the neck region, skin incision, and exposure of the trachea.
Bleomycin (Sigma-Aldrich, USA) was directly administered into the trachea at a concentration of 5 mg/kg in a solution of 100 μL.
Two days prior to Bleomycin administration, the compound of the present invention or the comparative drug was administered intraperitoneally at the specified concentration and dose, and the administration was continued once daily for a total of 14 days.
The experimental groups included Normal, Bleomycin alone (BLM), and BLM plus the compound of the present invention (BLM+GO88, 0.2 mg/kg).
Ten days later, the mice were euthanized humanely using carbon dioxide gas, the trachea was incised, and PBS was injected into the trachea to remove blood from the lungs.
The lung tissue washed with PBS was excised, fixed in 4% paraformaldehyde solution for 24 hours, and then paraffin blocks and tissue sections were prepared. The prepared sections were subjected to pathological analysis using H & E, Masson's trichrome, and Sirius red staining.
Additionally, immunohistochemical (IHC) staining was performed for α-SMA (α-smooth muscle actin), an indicator of lung fibroblast activation.

[4] = MRL/lpr mice, serum at necropsy, ELISA, vs control group

Nc1ncccc1C(=O)NCCCCCCCCCCCCF [Compound 57, 2-Amino-N-(12-fluoro-dodecyl)-nicotinamide]
PDK1 phosphorylation (phospho-PDK1 expression level) [1]: inhibitory effect on PDK1 phosphorylation
hair growth on the facial region (MRL/lpr mice; 41-week-old female MRL/lpr mice, GO15F (30 mg/kg), GO48 (1 mg/kg), GO88 (0.5 mg/kg) intraperitoneally once daily): hair growth was confirmed
renal pathological tissue (glomerular capillary loops) (MRL/lpr mice; MRL/lpr mice, H&E, PAS, Masson trichrome staining): glomerular capillary loops were well maintained
B cells, T cells, and macrophages in the spleen (MRL/lpr mice; MRL/lpr mice, flow cytometry (B220, CD3, CD11b/F4/80)): reduced the increased B cells, T cells, and macrophages
IgG deposition in kidney tissue (MRL/lpr mice; MRL/lpr mice, immunofluorescence staining): significantly lower
concentration of anti-dsDNA IgG in the blood (MRL/lpr mice; [4]): significantly lower
total IgG concentration in the blood (MRL/lpr mice; [4]): significantly lower
protein concentration in urine (MRL/lpr mice; MRL/lpr mice, weekly urine, Bradford, vs control group): significantly lower than that in the control group
number of β-gal-positive cells [2]: decreased
collagen deposition (Masson's trichrome and Sirius red staining) [3]: significantly reduced
expression of α-SMA (IHC) [3]: significantly suppressed
